From PubChem BioAssay (NCI)
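Exposure lasted 48 hours, with cells grown in 96-well plates and compounds tested at five concentrations. At the GI50, growth is halved. TGI is the concentration that stops growth completely.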

Experiments:
Experiment in all cases: DTP human tumour cell line panel, 48 h
[1] = tested on: HCT-116 colon
[2] = tested on: MDA-MB-231 breast
[3] = tested on: MALME-3M melanoma
[4] = tested on: CCRF-CEM leukemia
[5] = tested on: A549 NSCLC
[6] = tested on: HOP-62 NSCLC
[7] = tested on: SF-295 CNS
[8] = tested on: NCI-H460 lung
[9] = tested on: UACC-62 melanoma
[10] = tested on: SK-OV-3 ovarian
[11] = tested on: KM12 colon
[12] = tested on: MDA-MB-468 breast
[13] = tested on: MOLT-4 leukemia
[14] = tested on: OVCAR-5 ovarian
[15] = tested on: OVCAR-4 ovarian
[16] = tested on: ACHN renal
[17] = tested on: NCI-H522 lung
[18] = tested on: K-562 leukemia
[19] = tested on: NCI-H226 lung
[20] = tested on: SW-620 colon
[21] = tested on: HOP-92 NSCLC
[22] = tested on: T-47D breast
[23] = tested on: BT-549 breast
[24] = tested on: OVCAR-8 ovarian
[25] = tested on: SNB-75 CNS
[26] = tested on: SR leukemia
[27] = tested on: SF-268 CNS
[28] = tested on: SK-MEL-5 melanoma
[29] = tested on: SF-539 CNS
[30] = tested on: MCF7 breast

Cc1ccc(-c2nc(Nc3ccccc3C(=O)O)c3ccccc3n2)cc1
TGI [1]: 36.1 µM | GI50 [2]: 17.2 µM | TGI [2]: 59.7 µM | GI50 [3]: 15.6 µM | TGI [3]: 64.5 µM | GI50 [4]: 5.72 µM | TGI [4]: > 100 µM | GI50 [5]: 8.31 µM | TGI [5]: > 100 µM | GI50 [6]: 10.8 µM | TGI [6]: 33.7 µM | GI50 [7]: 7.04 µM | TGI [7]: 27 µM | GI50 [8]: 8.52 µM | TGI [8]: 27.7 µM | GI50 [9]: 10.2 µM | TGI [9]: 27 µM | GI50 [10]: 11.9 µM | TGI [10]: 55.3 µM | GI50 [11]: 13.7 µM | TGI [11]: 81.2 µM | GI50 [12]: 8.29 µM | TGI [12]: 42.3 µM | GI50 [13]: 11.7 µM | TGI [13]: > 100 µM | GI50 [14]: 21.8 µM | TGI [14]: 68.9 µM | GI50 [15]: 8.77 µM | TGI [15]: > 100 µM | GI50 [16]: 6.44 µM | TGI [16]: 91.1 µM | GI50 [17]: 4.35 µM | TGI [17]: 27.1 µM | GI50 [18]: 7.05 µM | TGI [18]: > 100 µM | GI50 [19]: 10.2 µM | TGI [19]: 54.2 µM | GI50 [20]: 18.2 µM | TGI [20]: > 100 µM | GI50 [21]: 2.85 µM | TGI [21]: 29.3 µM | GI50 [22]: 6.29 µM | TGI [22]: 70 µM | GI50 [23]: 14.6 µM | TGI [23]: 33.8 µM | GI50 [24]: 18.2 µM | TGI [24]: > 100 µM | GI50 [25]: 1.36 µM | TGI [25]: 80.3 µM | GI50 [26]: 10.3 µM | TGI [26]: > 100 µM | GI50 [27]: 14.3 µM | TGI [27]: > 100 µM | GI50 [28]: 5.32 µM | TGI [28]: 20.3 µM | GI50 [29]: 11.9 µM | TGI [29]: 28.3 µM | GI50 [30]: 9.41 µM | TGI [30]: 89.9 µM
